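Following 48 hours of exposure in 96-well plates, responses at five concentrations were used to interpolate endpoints linearly. TGI: concentration producing complete growth inhibition.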
Columns and labels:
Test in all cases: growth of human tumour cells (NCI), 48 h
A498 renal = system: A498 renal
NCI/ADR-RES ovarian = system: NCI/ADR-RES ovarian
HT29 colon = system: HT29 colon
SF-295 CNS = system: SF-295 CNS
KM12 colon = system: KM12 colon
BT-549 breast = system: BT-549 breast
HCC-2998 colon = system: HCC-2998 colon
DU-145 prostate = system: DU-145 prostate
HS 578T breast = system: HS 578T breast
NCI-H226 lung = system: NCI-H226 lung
HOP-62 NSCLC = system: HOP-62 NSCLC
MCF7 breast = system: MCF7 breast
NCI-H522 lung = system: NCI-H522 lung
SN12C renal = system: SN12C renal
HL-60(TB) leukemia = system: HL-60(TB) leukemia
NCI-H460 lung = system: NCI-H460 lung
786-0 renal = system: 786-0 renal
ACHN renal = system: ACHN renal
SW-620 colon = system: SW-620 colon
IGROV1 ovarian = system: IGROV1 ovarian
UACC-62 melanoma = system: UACC-62 melanoma
TK-10 renal = system: TK-10 renal
A549 NSCLC = system: A549 NSCLC
MDA-MB-435 = system: MDA-MB-435
K-562 leukemia = system: K-562 leukemia
SF-268 CNS = system: SF-268 CNS
MDA-N = system: MDA-N
CCRF-CEM leukemia = system: CCRF-CEM leukemia
RPMI-8226 leukemia = system: RPMI-8226 leukemia
COLO 205 colon = system: COLO 205 colon
MALME-3M melanoma = system: MALME-3M melanoma
SNB-19 CNS = system: SNB-19 CNS
HOP-92 NSCLC = system: HOP-92 NSCLC
PC-3 prostate = system: PC-3 prostate
UO-31 renal = system: UO-31 renal
OVCAR-8 ovarian = system: OVCAR-8 ovarian
MDA-MB-231 breast = system: MDA-MB-231 breast
SK-OV-3 ovarian = system: SK-OV-3 ovarian
NCI-H23 lung = system: NCI-H23 lung
SF-539 CNS = system: SF-539 CNS
SNB-75 CNS = system: SNB-75 CNS
LOX IMVI melanoma = system: LOX IMVI melanoma
SK-MEL-5 melanoma = system: SK-MEL-5 melanoma
T-47D breast = system: T-47D breast
HCT-116 colon = system: HCT-116 colon
MOLT-4 leukemia = system: MOLT-4 leukemia
SK-MEL-28 melanoma = system: SK-MEL-28 melanoma
M14 melanoma = system: M14 melanoma
OVCAR-4 ovarian = system: OVCAR-4 ovarian
U251 CNS = system: U251 CNS
OVCAR-3 ovarian = system: OVCAR-3 ovarian
OVCAR-5 ovarian = system: OVCAR-5 ovarian
HCT-15 colon = system: HCT-15 colon
SR leukemia = system: SR leukemia
RXF 393 renal = system: RXF 393 renal
UACC-257 melanoma = system: UACC-257 melanoma
EKVX NSCLC = system: EKVX NSCLC
SK-MEL-2 melanoma = system: SK-MEL-2 melanoma
CAKI-1 renal = system: CAKI-1 renal

Compound: CCOC(=O)NC(Nc1ccc(C)cc1)(C(F)(F)F)C(F)(F)F
- TGI (A498 renal): > 100 µM
- TGI (NCI/ADR-RES ovarian): > 100 µM
- TGI (HT29 colon): > 100 µM
- TGI (SF-295 CNS): > 100 µM
- TGI (KM12 colon): > 100 µM
- TGI (BT-549 breast): > 100 µM
- TGI (HCC-2998 colon): > 100 µM
- TGI (DU-145 prostate): > 100 µM
- TGI (HS 578T breast): > 100 µM
- TGI (NCI-H226 lung): > 100 µM
- TGI (HOP-62 NSCLC): > 100 µM
- TGI (MCF7 breast): > 100 µM
- TGI (NCI-H522 lung): > 100 µM
- TGI (SN12C renal): > 100 µM
- TGI (HL-60(TB) leukemia): > 100 µM
- TGI (NCI-H460 lung): > 100 µM
- TGI (786-0 renal): > 100 µM
- TGI (ACHN renal): > 100 µM
- TGI (SW-620 colon): > 100 µM
- TGI (IGROV1 ovarian): > 100 µM
- TGI (UACC-62 melanoma): > 100 µM
- TGI (TK-10 renal): > 100 µM
- TGI (A549 NSCLC): > 100 µM
- TGI (MDA-MB-435): > 100 µM
- TGI (K-562 leukemia): > 100 µM
- TGI (SF-268 CNS): > 100 µM
- TGI (MDA-N): > 100 µM
- TGI (CCRF-CEM leukemia): > 100 µM
- TGI (RPMI-8226 leukemia): > 100 µM
- TGI (COLO 205 colon): > 100 µM
- TGI (MALME-3M melanoma): > 100 µM
- TGI (SNB-19 CNS): > 100 µM
- TGI (HOP-92 NSCLC): > 100 µM
- TGI (PC-3 prostate): > 100 µM
- TGI (UO-31 renal): > 100 µM
- TGI (OVCAR-8 ovarian): > 100 µM
- TGI (MDA-MB-231 breast): > 100 µM
- TGI (SK-OV-3 ovarian): > 100 µM
- TGI (NCI-H23 lung): > 100 µM
- TGI (SF-539 CNS): > 100 µM
- TGI (SNB-75 CNS): > 100 µM
- TGI (LOX IMVI melanoma): > 100 µM
- TGI (SK-MEL-5 melanoma): > 100 µM
- TGI (T-47D breast): > 100 µM
- TGI (HCT-116 colon): > 100 µM
- TGI (MOLT-4 leukemia): > 100 µM
- TGI (SK-MEL-28 melanoma): > 100 µM
- TGI (M14 melanoma): > 100 µM
- TGI (OVCAR-4 ovarian): > 100 µM
- TGI (U251 CNS): > 100 µM
- TGI (OVCAR-3 ovarian): > 100 µM
- TGI (OVCAR-5 ovarian): > 100 µM
- TGI (HCT-15 colon): > 100 µM

Compound: O=C(O)c1nnsc1-c1ccc(-c2snnc2C(=O)O)cc1
- TGI (A498 renal): > 100 µM
- TGI (NCI/ADR-RES ovarian): > 100 µM
- TGI (HT29 colon): > 100 µM
- TGI (SF-295 CNS): > 100 µM
- TGI (KM12 colon): > 100 µM
- TGI (BT-549 breast): > 100 µM
- TGI (DU-145 prostate): > 100 µM
- TGI (HS 578T breast): > 100 µM
- TGI (NCI-H226 lung): > 100 µM
- TGI (SR leukemia): > 100 µM
- TGI (HOP-62 NSCLC): > 100 µM
- TGI (MCF7 breast): > 100 µM
- TGI (NCI-H522 lung): > 100 µM
- TGI (SN12C renal): > 100 µM
- TGI (HL-60(TB) leukemia): > 100 µM
- TGI (NCI-H460 lung): > 100 µM
- TGI (786-0 renal): > 100 µM
- TGI (ACHN renal): > 100 µM
- TGI (SW-620 colon): > 100 µM
- TGI (RXF 393 renal): > 100 µM
- TGI (IGROV1 ovarian): > 100 µM
- TGI (UACC-62 melanoma): > 100 µM
- TGI (TK-10 renal): > 100 µM
- TGI (A549 NSCLC): > 100 µM
- TGI (MDA-MB-435): > 100 µM
- TGI (K-562 leukemia): 98.3 µM
- TGI (SF-268 CNS): > 100 µM
- TGI (UACC-257 melanoma): > 100 µM
- TGI (MDA-N): > 100 µM
- TGI (CCRF-CEM leukemia): 9.63 µM
- TGI (RPMI-8226 leukemia): 68.6 µM
- TGI (COLO 205 colon): > 100 µM
- TGI (MALME-3M melanoma): > 100 µM
- TGI (SNB-19 CNS): > 100 µM
- TGI (HOP-92 NSCLC): > 100 µM
- TGI (PC-3 prostate): > 100 µM
- TGI (UO-31 renal): > 100 µM
- TGI (OVCAR-8 ovarian): > 100 µM
- TGI (MDA-MB-231 breast): > 100 µM
- TGI (SK-OV-3 ovarian): > 100 µM
- TGI (NCI-H23 lung): > 100 µM
- TGI (EKVX NSCLC): > 100 µM
- TGI (SF-539 CNS): 69.7 µM
- TGI (SNB-75 CNS): > 100 µM
- TGI (LOX IMVI melanoma): > 100 µM
- TGI (SK-MEL-5 melanoma): > 100 µM
- TGI (SK-MEL-2 melanoma): > 100 µM
- TGI (T-47D breast): > 100 µM
- TGI (HCT-116 colon): > 100 µM
- TGI (MOLT-4 leukemia): 51.4 µM
- TGI (SK-MEL-28 melanoma): > 100 µM
- TGI (M14 melanoma): > 100 µM
- TGI (OVCAR-4 ovarian): > 100 µM
- TGI (U251 CNS): > 100 µM
- TGI (OVCAR-3 ovarian): > 100 µM
- TGI (OVCAR-5 ovarian): > 100 µM
- TGI (CAKI-1 renal): > 100 µM
- TGI (HCT-15 colon): > 100 µM

Compound: CC1(C)OC(C(=O)Nc2cc3c4ccccc4ccc3c3ccccc23)C(C(=O)N2CCCCC2)O1 (centres undefined)
- TGI (A498 renal): > 100 µM
- TGI (NCI/ADR-RES ovarian): > 100 µM
- TGI (HT29 colon): > 100 µM
- TGI (SF-295 CNS): > 100 µM
- TGI (KM12 colon): > 100 µM
- TGI (BT-549 breast): > 100 µM
- TGI (HCC-2998 colon): > 100 µM
- TGI (DU-145 prostate): > 100 µM
- TGI (HS 578T breast): > 96.6 µM
- TGI (NCI-H226 lung): > 100 µM
- TGI (HOP-62 NSCLC): > 100 µM
- TGI (MCF7 breast): > 29.7 µM
- TGI (NCI-H522 lung): > 28.3 µM
- TGI (SN12C renal): > 100 µM
- TGI (HL-60(TB) leukemia): > 100 µM
- TGI (NCI-H460 lung): 27.7 µM
- TGI (786-0 renal): > 100 µM
- TGI (ACHN renal): > 100 µM
- TGI (SW-620 colon): > 100 µM
- TGI (RXF 393 renal): > 27.7 µM
- TGI (IGROV1 ovarian): > 100 µM
- TGI (UACC-62 melanoma): > 100 µM
- TGI (TK-10 renal): > 100 µM
- TGI (A549 NSCLC): > 100 µM
- TGI (MDA-MB-435): > 100 µM
- TGI (K-562 leukemia): > 100 µM
- TGI (SF-268 CNS): > 100 µM
- TGI (UACC-257 melanoma): > 100 µM
- TGI (MDA-N): > 100 µM
- TGI (CCRF-CEM leukemia): > 100 µM
- TGI (RPMI-8226 leukemia): > 43.2 µM
- TGI (COLO 205 colon): > 100 µM
- TGI (MALME-3M melanoma): > 100 µM
- TGI (SNB-19 CNS): > 100 µM
- TGI (HOP-92 NSCLC): > 100 µM
- TGI (PC-3 prostate): > 100 µM
- TGI (UO-31 renal): > 100 µM
- TGI (OVCAR-8 ovarian): > 100 µM
- TGI (MDA-MB-231 breast): > 100 µM
- TGI (SK-OV-3 ovarian): > 100 µM
- TGI (NCI-H23 lung): > 100 µM
- TGI (EKVX NSCLC): > 100 µM
- TGI (SF-539 CNS): > 100 µM
- TGI (SNB-75 CNS): > 100 µM
- TGI (LOX IMVI melanoma): 25.3 µM
- TGI (SK-MEL-5 melanoma): > 100 µM
- TGI (SK-MEL-2 melanoma): > 100 µM
- TGI (T-47D breast): > 100 µM
- TGI (HCT-116 colon): > 100 µM
- TGI (MOLT-4 leukemia): > 23.9 µM
- TGI (SK-MEL-28 melanoma): > 100 µM
- TGI (M14 melanoma): > 100 µM
- TGI (OVCAR-4 ovarian): > 100 µM
- TGI (U251 CNS): > 100 µM
- TGI (OVCAR-3 ovarian): > 100 µM
- TGI (OVCAR-5 ovarian): > 100 µM
- TGI (CAKI-1 renal): > 54.6 µM
- TGI (HCT-15 colon): > 100 µM

Source: PubChem BioAssay (NCI)
